In patent US3939268A, “2,4-Diamino substituted pyridol(3,2-d)pyrimidine as antithrombotic agents” (Boehringer Ingelheim GmbH, priority 1971, dated 1976):
Counter-ions that a name gives are not always drawn.

Tests used:
[1] = test system: thrombocyte aggregation / platelet stickiness (human blood); experiment: retention test according to Morris (reduction in platelet stickiness, glass beads); type: cell-based; settings: 5×10^-5 mol/liter, 10 minutes at 37°C, average of 4 - 6 determinations; for inhibition at 50 µM: Platelet, 10 min
Method: The inhibiting effect upon the platelet stickiness was determined by means of the so-called retention test according to Morris [see E. Deutsch et al, 1.Internationales Symposium uber Stoffwechsel and Membranpermeabilitat von Erythrocyten and Thrombocyten, Vienna, Austria (1969); Georg Thieme Verlag, Stuttgart, Germany]. […] To determine the inhibiting action of the test compound upon thrombocyte aggregation, 1 ml of human blood is pipetted into small test tubes, and the test compound is added to a final concentration of 5×10^^-5 mol/liter. The tubes are incubated for 10 minutes at 37°C. 1 gm of glass beads (glass beads for gas-chromatography) is added to half of the tubes. Finally the closed tubes are attached to a vertical wheel and rotated for 1 minute. By this means good contact is obtained between the glass beads and the blood. The tubes are then allowed to stand at room temperature for another hour, after which time a satisfactory sedimentation of erythrocytes has taken place. 0.01 ml of the supernatant plasma is removed, diluted to 1 : 8,000 with celloscope solution, and the platelet count is read in the celloscope. The percent reduction in the stickiness due to the presence of the substance (compared to tubes without glass beads) is measured and the average of 4 - 6 determinations is taken.

[2] = acute toxicity (LD50); settings: mouse, in vivo, po, mice, observation time 14 days; for mortality at 336 h: p.o., printed with LD50 >250 mg/kg, read-out: animals died
Method: 3. The acute toxicity of some of the compounds for orientation (observationtime : 14 days) was determined on mice, or the LD50 was calculated from the percentage of animals which died after different doses within the observation time [see J. Pharmacol. exper. Therap. 96, 99(1949)].

[3] = test system: bleeding time; experiment: prolongation of the bleeding time (method of Duke); type: in vivo; settings: non-anesthetized mice, 10 mgm/kg per os, after one hour, compared to untreated animals; for change in vivo at 10 mg/kg: Mus musculus, po, 1 h
Source text: The prolonging effect upon the bleeding time was ascertained by the method of Duke, J. Amer. Med. Assoc. 15, 1185 (1910). 2. To determine the bleeding time, 10 mgm/kg of the test compound is given per os to non-anesthetized mice. After one hour, about 0.5 mm is cut off from the tail of each animal. The exuded blood is soaked up with filter paper every 30 seconds. The number of drops of blood so obtained is used as a measure for the bleeding time compared to untreated animals (5 animals/test).

[4] = test system: anesthetized cats and dogs; experiment: hypotensive tests (method of Eckenhoff); type: in vivo; settings: in words, warm-blooded animals, such as mice
Method: The hypotensive tests were performed on anesthetized cats and dogs by the method of Eckenhoff, Amer. J. Physiol. 148, 582 (1947).

Compound	inhibition at 50 µM [1] [%]	change in vivo at 10 mg/kg [3] [%]	further results
O=C(O)/C=C\C(=O)O.c1cnc2c(N3CCSCC3)nc(N3CCNCC3)nc2c1 [A, 2-piperazino-4-thiomorpholinopyrido[3,2-d]pyrimidine maleate]	99	171	LD50 at 336 h [2]: 413 mg/kg
CN1CCN(c2nc(N3CCSCC3)c3ncccc3n2)CC1 [B, 2-(n'-methyl-piperazino)-4-thiomorpholino-pyrido[3,2-d] pyrimidine dihydrochloride]	53	118	
Cl.Cl.[O-][S+]1CCN(c2nc(N3CCNCC3)nc3cccnc23)CC1 [C, 2-piperazino-4-(1'-oxido-thiomorpholino)-pyrido[3,2-d] pyrimidine dihydrochloride]	99		hypotensive activity [4]: particularly pronounced; LD50 at 336 h [2]: 872 mg/kg
CN1CCN(c2nc(N3CC[S+]([O-])CC3)c3ncccc3n2)CC1 [D, 2-(n'-methyl-piperazino)-4-(1'-oxido-thiomorpholino)-pyrido[3,2-d]pyrimidine dihydrochloride]	87	88	
[O-][S+]1CCN(c2nc(N(CCCO)CCCO)nc3cccnc23)CC1 [E, 2-(dipropanol-amino)-4-(1'-oxido-thiomorpholino)-pyrido[3,2-d]pyrimidine hydrochloride]	88	40	
c1cnc2c(N3CCNCC3)nc(N3CCSCC3)nc2c1 [Example 27, 2-Thiomorpholino-4-piperazino-pyrido[3,2-d]pyrimidine]			hypotensive activity [4]: particularly pronounced
Cl.[O-][S+]1CCN(c2nc(N(CCO)CCCCCCO)nc3cccnc23)CC1 [F, 2-(n-ethanol-hexanolamino)-4-(1'-oxido-thiomorpholino)-pyrido[3,2-d]pyrimidine hydrochloride]			Reduction in Stickiness ([1]; 50 µM): 71%; Prolongation of Bleeding Time [3]: 35%
CC1CN(c2nc(N3CCNCC3)nc3cccnc23)CC[S+]1[O-] (stereo not shown) [G, 2-piperazino-4-(1'-oxido-2'-methyl-thiomorpholino)-pyrido[3,2-d]pyrimidinedihydrochloride]	96	55	
c1cnc2c(N3CCOCC3)nc(N3CCNCC3)nc2c1 [H, 2-piperazino-4-morpholino-pyrido[3,2-d]pyrimidine dihydrochloride]	96	55	
CN1CCN(c2nc(N3CCOCC3)c3ncccc3n2)CC1 [I, 2-(n'-methyl-piperazino)-4-morpholino-pyrido[3,2-d] pyrimidine dihydrochloride]	70	40	
OCCCN(CCCO)c1nc(N2CCOCC2)c2ncccc2n1 [J, 2-(dipropanol-amino)-4-morpholino-pyrido[3,2-d]pyrimidine dihydrochloride]	50	45	
c1cnc2c(N3CCCCC3)nc(N3CCNCC3)nc2c1 [K, 2-piperazino-4-piperidino-pyrido[3,2-d]pyrimidine dihydrochloride]	39	138	
OCCCN(CCCO)c1nc(N2CCCCC2)c2ncccc2n1 [L, 2-(dipropanol-amino)-4-piperidino-pyrido[3,2-d]pyrimidine hydrochloride]	20	103	
O=S1(=O)CCN(c2nc(N3CCNCC3)nc3cccnc23)CC1 [M, 2-piperazino-4-(1',1'-dioxide-thiomorpholino)-pyrido[3,2-d]pyrimidine dihydrochloride]	88	98	LD50 at 336 h [2]: > 250 mg/kg; mortality at 336 h [2]: 0%
Cl.Cl.c1cnc2c(N3CCCCC3)nc(N3CCSCC3)nc2c1 [N, 2-thiomorpholino-4-piperidino-pyrido[3,2-d]pyrimidine dihydrochloride]	77	98	LD50 at 336 h [2]: > 250 mg/kg; mortality at 336 h [2]: 0%
[O-][S+]1CCN(c2nc(N3CCNCC3)c3ncccc3n2)CC1 [O, 2-(1'-oxido-thiomorpholino)-4-piperazino-pyrido [3,2-d]pyrimidine]	98	35	hypotensive activity [4]: particularly pronounced; LD50 at 336 h [2]: > 250 mg/kg; mortality at 336 h [2]: 0%
Cc1ccc2nc(N3CCNCC3)nc(N3CC[S+]([O-])CC3)c2n1 [P, 2-piperazino-4-(1'-oxido-thiomorpholino)-6-methylpyrido[3,2-d]pyrimidine d ihydrochloride]	89	98	
Cc1ccc2nc(N3CCSCC3)nc(N3CCNCC3)c2n1 [Q, 2-thiomorpholino-4-piperazino-6-methyl-pyrido[3,2-d] pyrimidine dihydrochloride]	34		
